Measured values reported in article PMC11676204.
Where two headings read alike, the source gives them in different places. Blank lines part the entries; values can stand above or below the compound they belong to.

How the values were obtained:
[1] = test system: methyl predenisolone-induced hypertensive rats; experiment: Antihypertensive activity, non-invasive tail-cuff method; type: in vivo, rat; set-up: Systolic BP / Diastolic BP: unit not given here; settings: for Diastolic BP / Heart Rate / MABP / Systolic BP: methyl predenisolone 20 mg/kg/week rats, n = 4, mean ± S.E.M.
Procedure: After recording the initial BP of rats, the animals were divided into seven groups of four animals each. One group was chosen as the control group. The remaining groups were given a subcutaneous injection of methyl-predenisolone acetate (20 mg/kg/week) for one week, as described by Ekerbicer, N et al.. […] In total, 28 animals were evenly divided into 7 groups of 4 animals each to attain maximum balance of subjects across experimental conditions. […] Animals in group II (hypertensive control) were injected methylprednisolone acetate (20 mg/kg/week) intraperitoneally for hypertension induction, creating a baseline model of plateau hypertension. Animals in Group III were administered with 20 mg/kg/week intraperitoneal injection of methylprednisolone treated with captopril at an oral dosage of 5 mg/kg/day. For Group IV, the basal dosage of methylprednisolone was provided along with a higher dosage of captopril (10 mg/kg/day by oral route). […] The inclusion of multiple treatment groups with varying doses provided insights into the relative efficacy and dose-response relationship of the interventions. Randomization was done by block randomization, ensuring without bias these allocations of animals into groups. Before intervention, baseline characteristics such as weight, age, or sex of animals were determined, and t-test or ANOVA was used to affirm that no significant difference between groups existed. The SYRCLE’s Risk of Bias tool analyzed potential biases across various domains like selection, performance, and detection bias; each domain was rated according to low, high, or unclear risk.
The CODA Non-Invasive Blood Pressure Recorder (Kent Scientific Corporation, Torrington, CT, USA) was used to measure mean arterial blood pressure in conscious rats using the tail-cuff method. With the rat’s tail protruding, the restrainer was inserted in the BP instrument. […] The tail was gently pressed against a transducer membrane that was linked to the digital BP display panel. After that, the device was turned on and stabilized until a consistent pulse rate was seen. […] In this investigation, albino rats (body weight 150–200 g) were employed. Rats were divided into four groups, each with four individuals. […] After 1 h, the mean arterial blood pressure was measured.
Statistical analysis was carried out by one-way analysis of variance followed by Dunnet’s multiple comparison test using GraphPad InStat 3 (Graph Pad Software Inc., San Diego, CA, USA). All values were expressed as mean ± standard error of the mean (SEM). All groups were compared with hypertensive control animals. p-value of <0.01 was statistically significant.

[2] = Pharmacokinetics after oral administration (plasma, UV spectrophotometry at 340 nm); type: in vivo; settings: rat; for Cmax / MRT / AUC(0-t): plasma; for AUC(0-t): read-out: AUC 0–7 (converted)
Procedure: In accordance with the ICH guidelines Q2 (R1) (2005) standard calibration curves, regression equations, and values for LOD and LOQ for each compound were validated with UV spectrophotometric method. Various parameters, such as linearity, precision, limit of detection, and limit of quantification, were considered for the method validation. […] The rats were orally administered (10, 20, and 40 mg/Kg body weight, n = 3) using a 20 G gavage needle. The animals were given a standard diet 4 h after the dosing, and blood samples were collected (approximately 400 μL) from each animal and placed into heparinized tubes before the dosing and at 0, 30, 60, 120, 180, 240, 300, 360, and 420 min after the dosing. Plasma (100 μL) was separated by centrifuging blood samples at 3600 rpm for 10 min at room temperature, followed by immediate processing for the analyses.
Plasma concentration by the compound was measured by UV spectrophotometry at 340 nm and validated per ICH requirements. […] The precision studies gave % RSD less than 2 for intra-day and inter-day variations, and recovery studies were between 97–99%, indicating the reliability of method.
The plasma concentration–time graph obtained after oral administrations were subjected to non-compartmental analyses based on the statistical moment theory, as shown in Figure 6 and Table 4. Pharmacokinetic parameters were calculated using WinNorlin 5.2 (Certara; available at www.certara.com, accessed on 20 November 2024). The parameters obtained include maximum plasma concentration (Cmax), the time to reach Cmax (Tmax), the elimination half-life (t1/2), the area under the plasma concentration–time curve from time zero to infinity (AUC0–∞), the area under the plasma concentration–time curve from time zero to 420 min AUC0–7, the mean residence time (MRT), and clearance (CL).

ACE enzyme = ACE enzyme (Homo sapiens, UniProt P12821); experiment: ACE inhibition assay (absorbance at 340 nm)
ACE enzyme, sequence (P12821 30-1306, species assumed): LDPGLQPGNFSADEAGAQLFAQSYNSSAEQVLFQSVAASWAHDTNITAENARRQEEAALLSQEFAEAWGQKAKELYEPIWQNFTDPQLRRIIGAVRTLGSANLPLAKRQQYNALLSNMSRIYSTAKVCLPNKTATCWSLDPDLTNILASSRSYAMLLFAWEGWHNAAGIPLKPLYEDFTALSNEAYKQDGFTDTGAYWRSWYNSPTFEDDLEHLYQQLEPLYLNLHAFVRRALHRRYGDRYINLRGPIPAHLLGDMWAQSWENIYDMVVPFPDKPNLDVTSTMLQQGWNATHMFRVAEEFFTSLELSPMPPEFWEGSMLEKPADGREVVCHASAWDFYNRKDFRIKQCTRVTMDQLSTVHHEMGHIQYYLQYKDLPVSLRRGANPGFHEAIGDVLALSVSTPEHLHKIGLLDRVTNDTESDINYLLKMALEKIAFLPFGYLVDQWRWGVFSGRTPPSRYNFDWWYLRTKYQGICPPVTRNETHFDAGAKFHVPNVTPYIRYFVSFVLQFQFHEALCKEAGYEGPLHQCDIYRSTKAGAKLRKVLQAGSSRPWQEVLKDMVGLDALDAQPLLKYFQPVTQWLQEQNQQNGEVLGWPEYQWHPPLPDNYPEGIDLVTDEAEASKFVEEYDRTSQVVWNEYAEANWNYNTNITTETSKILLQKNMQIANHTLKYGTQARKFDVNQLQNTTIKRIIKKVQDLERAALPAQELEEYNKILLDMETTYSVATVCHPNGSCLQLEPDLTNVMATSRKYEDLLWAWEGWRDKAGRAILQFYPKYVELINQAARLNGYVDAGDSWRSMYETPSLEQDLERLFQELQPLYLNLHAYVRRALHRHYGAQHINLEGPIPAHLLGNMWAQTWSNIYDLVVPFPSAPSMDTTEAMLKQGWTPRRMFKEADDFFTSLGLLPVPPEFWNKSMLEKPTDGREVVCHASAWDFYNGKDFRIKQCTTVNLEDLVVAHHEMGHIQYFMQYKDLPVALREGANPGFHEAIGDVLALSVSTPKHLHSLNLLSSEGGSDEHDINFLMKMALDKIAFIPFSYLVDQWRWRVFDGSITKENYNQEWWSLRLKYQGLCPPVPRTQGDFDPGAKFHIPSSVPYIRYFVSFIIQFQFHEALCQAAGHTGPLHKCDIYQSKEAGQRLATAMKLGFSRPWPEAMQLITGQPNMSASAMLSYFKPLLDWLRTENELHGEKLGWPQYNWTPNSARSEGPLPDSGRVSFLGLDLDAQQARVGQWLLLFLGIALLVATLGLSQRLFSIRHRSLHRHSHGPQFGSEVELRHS
Procedure: The enzyme solution and substrate were prepared under standard protocols, and the assay was performed in 96-well plates wherein the ACE enzyme and inhibitor were mixed with the substrate. The reaction was incubated at 37 °C for 30 min, after which the ACE activity was determined by measuring the absorbance at 340 nm that correlated with the product formation and enzyme activity [36]. The IC₅₀ values that specify inhibition at 50% concentration were generated from concentration-inhibition data. The percentage inhibition was calculated using the formula:Percentage Inhibition (%) = (A − C)/ (A − B) ∗ 100 where A is the absorbance of the negative control (substrate and enzyme), B is the absorbance of the blank (buffer only) and C is the absorbance of the sample (enzyme, substrate and sample). For the positive control, captopril was used instead of a sample and was considered as C.

Cmax ([2]; 10 mg/kg b.w. oral): 100 µg/mL
MRT ([2]; 10 mg/kg b.w. oral): 3.05 h
AUC(0-t) ([2]; 10 mg/kg b.w. oral): 438 µg·h/mL
Cmax ([2]; 20 mg/kg b.w. oral): 119 µg/mL
MRT ([2]; 20 mg/kg b.w. oral): 2.98 h
AUC(0-t) ([2]; 20 mg/kg b.w. oral): 499 µg·h/mL
Cmax ([2]; 40 mg/kg b.w. oral): 125 µg/mL
MRT ([2]; 40 mg/kg b.w. oral): 3.04 h
AUC(0-t) ([2]; 40 mg/kg b.w. oral): 539 µg·h/mL
Elimination Rate ([2]; 10 mg/kg b.w. oral): 0.0001236 h⁻¹
Elimination Rate ([2]; 20 mg/kg b.w. oral): 0.0006846 h⁻¹
Elimination Rate ([2]; 40 mg/kg b.w. oral): 0.0002917 h⁻¹
bioavailability ([2]; oral): moderate
IC50 (ACE enzyme): ~20 µM
inhibition at 100 µM (ACE enzyme; read-out: maximum ACE inhibition): ~82%
SMILES: COc1cc2oc(-c3ccc(O)cc3)c(OC3OC(CO)C(O)C(O)C3O)c(=O)c2c(O)c1OC (stereo not shown)
Diastolic BP ([1]; 10 mg/kg): 126.99 ± 6.80
Heart Rate ([1]; 10 mg/kg): 443.99 ± 15.12 Beats/min
MABP ([1]; 10 mg/kg): 144.4 ± 4.59 mmHg
Systolic BP ([1]; 10 mg/kg): 179.19 ± 7.18
Diastolic BP ([1]; 20 mg/kg oral): 110.88 ± 10.28
Heart Rate ([1]; 20 mg/kg oral): 430.66 ± 10.5 Beats/min
MABP ([1]; 20 mg/kg oral): 120.1 ± 5.1 mmHg
Systolic BP ([1]; 20 mg/kg oral): 138.44 ± 7.09
Diastolic BP ([1]; 40 mg/kg oral): 85.76 ± 7.4
Heart Rate ([1]; 40 mg/kg oral): 408.99 ± 9.0 Beats/min
MABP ([1]; 40 mg/kg oral): 95.53 ± 7.5 mmHg
Systolic BP ([1]; 40 mg/kg oral): 114.99 ± 5.8
blood pressure in treated rats ([1]; 10, 20 and 40 mg/kg): dose-dependent decrease in blood pressure
systolic and diastolic blood pressures compared with vehicle ([1]; methyl predenisolone-induced hypertensive rats, p < 0.01): significantly lower

SMILES: C[C@H](CS)C(=O)N1CCC[C@H]1C(=O)O [Captopril, captopril, reference compound]
Diastolic BP ([1]; 5 mg/kg): 117.8 ± 11.19
Heart Rate ([1]; 5 mg/kg): 507.11 ± 6.13 Beats/min
MABP ([1]; 5 mg/kg): 126.19 ± 11.10 mmHg
Systolic BP ([1]; 5 mg/kg): 142.99 ± 10.88
Diastolic BP ([1]; 10 mg/kg): 98.66 ± 10.18
Heart Rate ([1]; 10 mg/kg): 421.78 ± 12.0 Beats/min
MABP ([1]; 10 mg/kg): 112.6 ± 5.17 mmHg
Systolic BP ([1]; 10 mg/kg): 136.77 ± 6.13
